Data: article PMC10380446, “The Electronic Effects of 3-Methoxycarbonylcoumarin Substituents on Spectral, Antioxidant, and Protein Binding Properties” (International Journal of Molecular Sciences, 2023)

Target: T1, bovine serum albumin (BSA) (Bos taurus, UniProt P02769)
T1 construct: gene ALB; mature secreted protein
Assay: tryptophan fluorescence quenching, excitation […] nm
Assay type: binding
Details: double-log, natural logarithm of K, PBS, 300 K

T1 sequence (P02769 25-607): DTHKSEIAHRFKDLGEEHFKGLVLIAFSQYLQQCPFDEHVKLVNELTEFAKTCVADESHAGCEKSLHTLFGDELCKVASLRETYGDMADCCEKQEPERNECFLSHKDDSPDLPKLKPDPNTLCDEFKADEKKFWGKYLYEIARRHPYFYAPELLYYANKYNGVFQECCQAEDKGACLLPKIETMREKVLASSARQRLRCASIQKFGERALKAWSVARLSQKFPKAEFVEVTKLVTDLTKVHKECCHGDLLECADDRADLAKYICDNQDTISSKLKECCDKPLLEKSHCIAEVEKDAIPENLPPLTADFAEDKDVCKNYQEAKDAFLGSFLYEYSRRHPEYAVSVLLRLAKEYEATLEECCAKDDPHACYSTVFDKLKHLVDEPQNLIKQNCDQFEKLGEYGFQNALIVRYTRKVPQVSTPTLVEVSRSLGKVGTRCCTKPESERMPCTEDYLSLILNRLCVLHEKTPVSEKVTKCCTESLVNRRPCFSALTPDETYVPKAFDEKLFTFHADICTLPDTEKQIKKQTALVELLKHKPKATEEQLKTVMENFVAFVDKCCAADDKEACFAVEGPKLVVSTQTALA

Structure (SMILES)	lnK	lnK (covalent (suspected by the authors from new 480 nm peak), unreliable)
COC(=O)c1cc2cc(Br)ccc2oc1=O [6-Br]	9.78 ln (M^-1 not printed)	
COC(=O)c1cc2cc([N+](=O)[O-])ccc2oc1=O [6-NO2]	9.03 ln (M^-1 not printed)	
COC(=O)c1cc2cc(OC)ccc2oc1=O [6-OMe]		12.62 ln (M^-1 not printed)
